{"source": "patent US8492109B2", "about": "(priority 2009, dated 2013)", "key": {"[1]": {"system": "HIT-T15 cells", "format": "cell-based, human"}, "[2]": {"system": "neuronal cell lines M17, Neuro2a and non-neuronal cell lines HEK293, HIT-T15", "format": "cell-based"}, "[3]": {"system": "M17 cells", "format": "cell-based"}, "[4]": {"system": "HEK293 cells"}, "[5]": {"system": "M17 cells"}, "[6]": {"system": "HIT-T15 cells", "format": "cell-based, human", "remark": "listed apart in the source"}, "[7]": {"system": "primary rat granule cerebellar neurons (RGCN)"}}}
{"smiles": "CO/C1=C\\C(C)=C\\[C@@H](C)[C@@H](O)[C@@H](C)C/C(C)=C/C=C/[C@H](OC)[C@@H]([C@@H](C)[C@@H](O)[C@H](C)[C@@]2(O)C[C@@H](O)[C@H](C)[C@@H](C(C)C)O2)OC1=O", "note": "[Bafilomycin, Bafilomycin A1]", "values": [{"measurement": "inhibition of functional internalization of recombinant BoNT/A Lc", "setting": "[1]", "value": "inhibited functional internalization"}, {"measurement": "inhibition of BoNT intoxication", "setting": "[2]", "value": "clearly inhibited"}, {"measurement": "sensitivity of functional transduction of BoNT Lc to bafilomycin", "setting": "[2]", "value": "fully sensitive"}, {"measurement": "effect on efficiency of plasmid DNA transfection mediated by FuGene (fluorescent protein expression)", "setting": "[3]", "value": "no inhibitory effect"}, {"measurement": "bafilomycin cytotoxicity", "setting": "[4]", "value": "particularly susceptible to bafilomycin toxicity"}, {"measurement": "inhibition of SNAP25 cleavage by BoNT/A holotoxin", "setting": "[5]", "value": "inhibited SNAP25 cleavage"}, {"measurement": "effect on efficiency of plasmid DNA transfection mediated by FuGene (fluorescent protein expression)", "setting": "[6]", "value": "no inhibitory effect"}, {"measurement": "SNAP25 cleavage in bafilomycin-treated cells", "setting": "[7]", "value": "a small amount of SNAP25 cleavage was observed"}, {"measurement": "cytotoxicity (visual)", "setting": "[7]", "value": "Some cytoxicity"}, {"measurement": "inhibition of BoNT/A intoxication (SNAP25 cleavage)", "setting": "[7]", "value": "completely inhibit"}]}
